Where a name gives a salt, the structure may show the parent alone.
`Nc1cccc(-c2ccc(CCN3CCN(C(=O)NC4CCCCC4)CC3)cc2)n1` [Example 32, 4-{2-[4-(6-Amino-pyridin-2-yl)-phenyl]-ethyl}-piperazine-1-carboxylic acid cyclohexylamide] showed a melting point of 180 to 182 °C.
With `Nc1cccc(-c2ccc(CCN3CCc4ccccc4C3)cc2)n1` [Example 6, 6-{4-[2-(3,4-Dihydro-1H-isoquinolin-2-yl)-ethyl]-phenyl}-pyridin-2-ylamine] the melting point was 130 to 132 °C.
For `Nc1cccc(-c2ccc(CCN3CCC(N)(C(=O)NCCc4ccccc4)CC3)cc2)n1` (as salt: hydrochloride) [Example 79, 4-Amino-1-{2-[4-(6-amino-pyridin-2-yl)-phenyl]-ethyl}-piperidine-4-carboxylic acid phenethyl-amide], the melting point was 215 to 219 °C (dec.).
For `Nc1cccc(-c2ccc(CCN3CCN(C(=O)C(N)Cc4ccccc4)CC3)cc2)n1` (stereo not shown) (as salt: hydrochloride) [Example 61, 2-Amino-1-(4-{2-[4-(6-amino-pyridin-2-yl)-phenyl]-ethyl}-piperazin-1-yl)-3-phenyl-propan-1-one], the melting point was 230 °C (dec.).
With `Nc1cccc(-c2ccc(CCN3CCN(C(=O)Cc4ccccc4)CC3)cc2)n1` the melting point was 135 to 137 °C.
For `Nc1cccc(-c2ccc(CCN3C4CCC3CC(N)C4)cc2)n1` (stereo not shown) (as salt: hydrochloride), the melting point was > 300 °C.
In the case of `Cc1cccc(NC(=O)N2CCN(CCc3ccc(-c4cccc(N)n4)cc3)CC2)c1` [Example 45, 4-{2-[4-(6-Amino-pyridin-2-yl)-phenyl]-ethyl}-piperazine-1-carboxylic acid m-tolyl-amide], the melting point is reported as 88 to 94 °C.
In the case of `Nc1cccc(-c2ccc(CCN(Cc3ccncc3)Cc3ccncc3)cc2)n1` (as salt: hydrochloride) [Example 120, 6-{4-[2-(Bis-pyridin-4-ylmethyl-amino)-ethyl]-phenyl}-pyridin-2-ylamine], the melting point is reported as 150 to 163 °C (dec.).
In the case of `Nc1cccc(-c2ccc(CCNC3CCN(C(=O)Nc4ccccc4)C3)cc2)n1` (stereo not shown) (as salt: hydrochloride) [Example 80, 3-{2-[4-(6-Amino-pyridin-2-yl)-phenyl]-ethylamino}-pyrrolidine-1-carboxylic acid phenylamide], the melting point is reported as 130 °C (dec.).
In the case of `Nc1cccc(-c2ccc(CCN3CCN(c4nnnn4-c4ccc(F)cc4)CC3)cc2)n1` [Example 48, 6-[4-(2-{4-[1-(4-Fluoro-phenyl)-1H-tetrazol-5-yl]-piperazin-1-yl}-ethyl)-phenyl]-pyridin-2-ylamine], the melting point is reported as 185 to 187 °C.
In the case of `Nc1cccc(-c2ccc(CCN3CCC(C(c4ccccc4)c4ccccc4)CC3)cc2)n1` (as salt: hydrochloride) [Example 90, 6-{4-[2-(4-Benzhydryl-piperidin-1-yl)-ethyl]-phenyl}-pyridin-2-ylamine], the melting point is reported as 175 °C (dec.).
For `Nc1cccc(-c2ccc(CCN3CCC(NC(=O)Cc4ccc(F)cc4)C3)cc2)n1` (stereo not shown) [Example 56, N-(1-{2-[4-(6-Amino-pyridin-2-yl)-phenyl]-ethyl}-pyrrolidin-3-yl)-2-(4-fluoro-phenyl)-acetamide], the melting point was 90 °C (dec.).
Compound `CC(C)NC(=O)CN1CCN(CCc2ccc(-c3cccc(N)n3)cc2)CC1` [Example 23, 2-(4-{2-[4-(6-Amino-pyridin-2-yl)-phenyl]-ethyl}-piperazin-1-yl)-N-isopropyl-acetamide] has a melting point of 163 to 165 °C.
For `Nc1cccc(-c2ccc(CCNC3CCc4ccccc4C3)cc2)n1` (stereo not shown) (as salt: hydrochloride) [Example 18, 6-{4-[2-(1,2,3,4-Tetrahydro-naphthalen-2-ylamino)-ethyl]-phenyl}-pyridin-2-ylamine], the melting point was 320 to 322 °C.
`CC(Cc1ccccc1)N1CCN(CCc2ccc(-c3cccc(N)n3)cc2)CC1` (stereo not shown) (as salt: hydrochloride) [Example 54, 6-(4-{2-[4-(1-Methyl-2-phenyl-ethyl)-piperazin-1-yl]-ethyl}-phenyl)-pyridin-2-ylamine] gave a melting point of 252 to 256 °C.
For `Nc1cccc(-c2ccc(CCNC3CC4CCC(C3)N4C(=O)Cc3ccc(F)cc3)cc2)n1` (stereo not shown) (as salt: hydrochloride), the melting point was 170 °C (dec.).
With `Nc1cccc(-c2ccc(CCN3CC4C(C3)C4NC(=O)Cc3ccc(F)cc3)cc2)n1` (stereo not shown) [Example 38, N-(3-{2-[4-(6-Amino-pyridin-2-yl)-phenyl]-ethyl}-3-aza-bicyclo[3.1.0]hex-6-yl)-2-(4-fluoro-phenyl)-acetamide] the melting point was 161 to 163 °C.
For `Nc1cccc(-c2ccc(CN3CCCCC3)cc2)n1` (as salt: hydrochloride) [Example 138, 6-(4-Piperidin-1-ylmethyl-phenyl)-pyridin-2-ylamine], the melting point was > 250 °C.
Work on `Nc1cccc(-c2ccc(CCN3CCN(C(=O)c4ccccc4)CC3)cc2)n1` [Example 25, (4-{2-[4-(6-Amino-pyridin-2-yl)-phenyl]-ethyl}-piperazin-1-yl)-phenyl-methanone] yielded a melting point of 125 to 127 °C.
In the case of `Nc1cccc(-c2ccc(CCN3CCN(C(=O)Cc4ccc(Cl)cc4)CC3)cc2)n1` (as salt: hydrochloride), the melting point is reported as 205 °C (dec.).
With `Nc1cccc(-c2ccc(CCN3CC4CCC(C3)C4N)cc2)n1` (stereo not shown) (as salt: hydrochloride) the melting point was 235 °C (dec.).
For `Nc1cccc(-c2ccc(CCN3CCN(C4CCc5ccccc5C4)CC3)cc2)n1` (stereo not shown) (as salt: hydrochloride) [Example 55, 6-(4-{2-[4-(1,2,3,4-Tetrahydro-naphthalen-2-yl)-piperazin-1-yl]-ethyl}-phenyl)-pyridin-2-ylamine], the melting point was > 220 °C.
In the case of `Nc1cccc(-c2ccc(CCN3CCN(C(c4ccccc4)c4ccccc4)CC3)cc2)n1` (as salt: hydrochloride) [Example 89, 6-{4-[2-(4-Benzhydryl-piperazin-1-yl)-ethyl]-phenyl}-pyridin-2-ylamine], the melting point is reported as 170 °C (dec.).
In the case of `Nc1cccc(-c2ccc(CCNCCc3ccccc3)cc2)n1` (as salt: hydrochloride) [Example 35, 6-[4-(2-Phenethylamino-ethyl)-phenyl]-pyridin-2-ylamine], the melting point is reported as 212 to 215 °C.
In the case of `Cc1ccc(NC(=O)N2CCN(CCc3ccc(-c4cccc(N)n4)cc3)CC2)cc1C` [Example 41, 4-{2-[4-(6-Amino-pyridin-2-yl)-phenyl]-ethyl}-piperazine-1carboxylic acid (3,4-dimethyl-phenyl)-amide], the melting point is reported as 122 to 125 °C.
With `Nc1cccc(-c2ccc(CCN3CCC(NC(=O)Cc4ccc(F)cc4)CC3)cc2)n1` (as salt: hydrochloride) [Example 65, N-(1-{2-[4-(6-Amino-pyridin-2-yl)-phenyl]-ethyl}-piperidin-4-yl)-2-(4-fluoro-phenyl)-acetamide] the melting point was 170 °C (dec.).
In the case of `Nc1cccc(-c2ccc(CCN3CCC(N)(C(=O)NCc4ccccc4)CC3)cc2)n1` (as salt: hydrochloride) [Example 59, 4-Amino-1{-2-[4-(6-amino-pyridin-2-yl)-phenyl]-ethyl}-piperidine-4-carboxylic acid benzylamide], the melting point is reported as > 240 °C (dec.).
Compound `Nc1cccc(-c2ccc(CCN3CCN(C(=O)C4CCCC4)CC3)cc2)n1` [Example 13, (4-{2-[4-(6-Amino-pyridin-2-yl)-phenyl]-ethyl}-piperazin-1-yl)-cyclopentyl-methanone] has a melting point of 185 to 187 °C.

— patent US6465491B2, “6-phenylpyridyl-2-amine derivatives” (Pfizer Inc., priority 1996, dated 2002)
